Measurements published in publication PMC5789083, “Mechanisms driving the antibacterial and antibiofilm properties of Hp1404 and its analogue peptides against multidrug-resistant Pseudomonas aeruginosa” (Scientific Reports, 2018).
≈ marks a conversion by molar mass, not a printed value. Read-outs that look alike come from different tables or passages of the source.

Columns and labels:
[1] = tested on: P. aeruginosa strains (biofilm formation); format: cell-based, Pseudomonas aeruginosa; settings: 24 h, 37 °C, crystal violet OD595
Procedure: To evaluate the ability of bacterial strains to form biofilms either in the absence or presence of peptides, antibiotic-susceptible P. aeruginosa (ATCC 27853), and various strains of MDR P. aeruginosa were cultured in nutrient broth (NB). […]. The biofilms were fixed with 100% methanol for 15 min, stained with 0.1% crystal violet (CV) for 1 h, and rinsed three times with distilled water (dH2O). After the addition of 95% ethanol, biofilm mass was quantified by measuring OD at 595 nm using a Versa-Max microplate ELISA reader (Molecular Devices). Results were expressed as the percentage of biofilm formed with respect to the control. […] All experiments were performed at least in triplicate.

P. aeruginosa 1034 = format: in vivo; settings: BALB/c mice, intradermal P. aeruginosa 1034
Procedure: BALB/c mice (6 weeks old) were used in this study. The mice were shaved and intradermally injected with 20 µl of P. aeruginosa (1 × 10^8 CFU/ml) in PBS.

[2] = tested on: Pseudomonas aeruginosa and MRPA strains; assay: microbe, parasite or virus in culture; format: cell-based; settings: broth micro-dilution, 37 °C, 18–24 h
Source text: Gram-negative (Pseudomonas aeruginosa ATCC 27853) bacterial strains were obtained from the ATCC (American Type Culture Collection; Manassas, VA, USA). Multidrug-resistant strains (Pseudomonas aeruginosa 138, 431, 434, 557, 559, 778, 1034, 1162, 3290, 3399, 3592, 3904, 4007, 4319, 4891, 5018, and 671973) were obtained from the Chonnam National University Hospital (Gwangju, South Korea).
We examined the activity of each peptide against both pseudomonas aeruginosa and multidrug-resistant strains. The minimal inhibitory concentrations (MICs) of peptides were determined using the broth micro-dilution assay as described previously. Briefly, bacterial strains were cultivated with shaking overnight at 37 °C. The next day, they were diluted to a density of 2 × 10^5 CFU/mL with growth medium. Peptides were serially diluted with 10 mM sodium phosphate buffer. 50 µL bacterial aliquots were mixed with an equal volume of peptide solution, and incubated at 37 °C for 18–24 h. Inhibition of bacterial growth was determined by measuring the absorbance at 600 nm using a Versa Max microplate reader (Molecular Devices, Sunnyvale, CA, USA). The test was performed in triplicate.

[3] = tested on: P. aeruginosa 1034 biofilm; assay: LIVE/DEAD BacLight (SYTO9/PI) staining of biofilms; format: cell-based, Pseudomonas aeruginosa; settings: even at 400 µM; P. aeruginosa 1034, 24 h, 37 °C
Procedure: Visualization of the remaining bacteria in the biofilm was achieved using the LIVE/DEAD BacLight Bacterial Viability Kit (Molecular Probes, Eugene, OR, USA), and an IX71 inverted fluorescence microscope (Olympus, Tokyo, Japan) was used for observation[58],[59]. Briefly, bacterial suspensions (5 × 10^5 CFU/mL) were incubated with 0.5× MBIC or 1× MBIC of the peptides, for 24 h at 37 °C. Following incubation, biofilms were stained with pre-mixed dye (SYTO-9 and propidium iodide) for 30 min in the dark; images were obtained using the aforementioned microscope.

HaCaT cells = assay: Cytotoxicity, MTT assay; format: cell-based, human; settings: 3.13 µM, 24 h
Procedure: We used the MTT assay to evaluate the toxicity of the peptides toward human skin epithelial cells (HaCaT) as previously described. Briefly, HaCaT cells were seeded at a density of 2 × 10^4 cells per well in 96-well microtiter plates in Dulbecco’s modified Eagle’s medium (DMEM) containing 10% foetal bovine serum (FBS) at 37 °C under 5% CO2 atmosphere. The next day, peptides were added to each well at various final concentrations (higher concentration of 200 µM). After 24 h incubation, culture supernatants were removed. 0.5 mg/mL MTT was added to each well, and the plates were incubated for 4 h at 37 °C. The medium was replaced by dimethyl sulfoxide (DMSO) to dissolve the formazan crystals formed in the wells. The absorbance at 570 nm was measured using a Versa-Max microplate ELISA reader (Molecular Devices). The viability rate was calculated using the following formula: Cell viability (%) = (absorbance of treated sample)/(absorbance of control) × 100.

mouse red blood cells = assay: Hemolytic activity; format: cell-based; settings: at 12.5 M (so in the source); mouse RBCs, positive control
Procedure: The hemolytic activities of the peptides were determined as previously described. Fresh mouse red blood cells (RBCs) were washed and diluted to 8% with PBS. RBC suspension was added to 96-well plates (100 µL/well), mixed with an equal volume of serially diluted peptides, and incubated at 37 °C for 1 h with gentle shaking. The plate was centrifuged and the supernatant was transferred to a 96-well plate. The absorbance at 414 nm was measured with a Versa-Max ELISA reader (Molecular Devices). PBS and 0.1% Triton X-100 were used as negative and positive controls, respectively. The experiment was performed in triplicate. The hemolysis rate was calculated using the following formula[55]: % Hemolysis = [(Abs 414 nm in the peptide solution-Abs 414 nm in PBS)/(Abs 414 nm in 0.1% Triton X-100-Abs 414 nm in PBS)] × 100

Structure (SMILES): O=C(O)c1cn(C2CC2)c2cc(N3CCNCC3)c(F)cc2c1=O [Ciprofloxacin, ciprofloxacin, reference compound]
- MBIC ([1]; P. aeruginosa 434): >400 µM
- MBIC ([1]; P. aeruginosa 559): >400 µM
- MBIC ([1]; P. aeruginosa 778): >400 µM
- MBIC ([1]; P. aeruginosa 1034): >400 µM
- MBIC ([1]; P. aeruginosa 1162): >400 µM
- MBIC ([1]; P. aeruginosa 3399): >400 µM
- MBIC ([1]; P. aeruginosa 3543): >400 µM
- MBIC ([1]; P. aeruginosa 4007): >400 µM
- killing of bacteria in infected skin (P. aeruginosa 1034; day 7): did not kill the bacteria
- decrease in number of colonies (P. aeruginosa 1034; until 4 days): about 60%
- MIC ([2]; Pseudomonas aeruginosa, ATCC27853, P. aeruginosa ATCC 27853, 2 × 10^5 CFU/mL, A600, triplicate): 1.56 µM (≈ 0.517 µg/mL)
- MIC ([2]; Pseudomonas aeruginosa, P. aeruginosa 138 (multidrug-resistant), triplicate): > 400 µM
- MIC ([2]; Pseudomonas aeruginosa, P. aeruginosa 431 (multidrug-resistant), triplicate): > 400 µM
- MIC ([2]; Pseudomonas aeruginosa, P. aeruginosa 434 (multidrug-resistant), triplicate): > 400 µM
- MIC ([2]; Pseudomonas aeruginosa, P. aeruginosa 557 (multidrug-resistant), triplicate): > 400 µM
- MIC ([2]; Pseudomonas aeruginosa, P. aeruginosa 559 (multidrug-resistant), triplicate): > 400 µM
- MIC ([2]; Pseudomonas aeruginosa, P. aeruginosa 778 (multidrug-resistant), triplicate): > 400 µM
- MIC ([2]; Pseudomonas aeruginosa, P. aeruginosa 1034 (multidrug-resistant), triplicate): > 400 µM
- MIC ([2]; Pseudomonas aeruginosa, P. aeruginosa 1162 (multidrug-resistant), triplicate): > 400 µM
- MIC ([2]; Pseudomonas aeruginosa, P. aeruginosa 3290 (multidrug-resistant), triplicate): > 400 µM
- MIC ([2]; Pseudomonas aeruginosa, P. aeruginosa 3399 (multidrug-resistant), triplicate): > 400 µM
- MIC ([2]; Pseudomonas aeruginosa, P. aeruginosa 3543 (multidrug-resistant), triplicate): 400 µM (≈ 133 µg/mL)
- MIC ([2]; Pseudomonas aeruginosa, P. aeruginosa 3592 (multidrug-resistant), triplicate): > 400 µM
- MIC ([2]; Pseudomonas aeruginosa, P. aeruginosa 3904 (multidrug-resistant), triplicate): 400 µM (≈ 133 µg/mL)
- MIC ([2]; Pseudomonas aeruginosa, P. aeruginosa 4007 (multidrug-resistant), triplicate): > 400 µM
- MIC ([2]; Pseudomonas aeruginosa, P. aeruginosa 4319 (multidrug-resistant), triplicate): > 400 µM
- MIC ([2]; Pseudomonas aeruginosa, P. aeruginosa 4891 (multidrug-resistant), triplicate): > 400 µM
- MIC ([2]; Pseudomonas aeruginosa, P. aeruginosa 5018 (multidrug-resistant), triplicate): > 400 µM
- MIC ([2]; Pseudomonas aeruginosa, P. aeruginosa 671973 (multidrug-resistant), triplicate): 100 µM (≈ 33.1 µg/mL)
- biofilm formation by the MRPA strain (live/dead staining) [3]: did not inhibit biofilm formation

Structure (SMILES): CC[C@H](C)[C@H](NC(=O)CN)C(=O)NCC(=O)N[C@@H](C)C(=O)N[C@H](C(=O)N[C@@H](CC(C)C)C(=O)N[C@@H](CCCCN)C(=O)N[C@H](C(=O)N[C@@H](CC(C)C)C(=O)N[C@H](C(=O)N[C@H](C(=O)NCC(=O)N[C@@H](CC(C)C)C(=O)N1CCC[C@H]1C(=O)N[C@@H](C)C(=O)N[C@@H](CC(C)C)C(=O)N[C@H](C(=O)N[C@@H](CO)C(=O)N[C@@H](Cc1c[nH]c2ccccc12)C(=O)N[C@H](C(=O)N[C@@H](CCCCN)C(=O)N[C@@H](CCCNC(=N)N)C(=O)N[C@@H](CCCCN)C(=O)N[C@@H](CCCNC(=N)N)C(=O)N[C@@H](CCC(N)=O)C(=O)N[C@@H](CCC(N)=O)C(N)=O)[C@@H](C)CC)[C@@H](C)CC)[C@@H](C)O)[C@@H](C)O)C(C)C)C(C)C [Melittin, reference compound]
- MIC ([2]; P. aeruginosa 138 (multidrug-resistant), triplicate): 3.13 µM (≈ 8.91 µg/mL)
- MIC ([2]; P. aeruginosa 431 (multidrug-resistant), triplicate): 3.13 µM (≈ 8.91 µg/mL)
- MIC ([2]; P. aeruginosa 434 (multidrug-resistant), triplicate): 3.13 µM (≈ 8.91 µg/mL)
- MIC ([2]; P. aeruginosa 557 (multidrug-resistant), triplicate): 1.56 µM (≈ 4.44 µg/mL)
- MIC ([2]; P. aeruginosa 559 (multidrug-resistant), triplicate): 3.13 µM (≈ 8.91 µg/mL)
- MIC ([2]; P. aeruginosa 778 (multidrug-resistant), triplicate): 3.13 µM (≈ 8.91 µg/mL)
- MIC ([2]; P. aeruginosa 1034 (multidrug-resistant), triplicate): 1.56 µM (≈ 4.44 µg/mL)
- MIC ([2]; P. aeruginosa 1162 (multidrug-resistant), triplicate): 3.13 µM (≈ 8.91 µg/mL)
- MIC ([2]; P. aeruginosa 3290 (multidrug-resistant), triplicate): 3.13 µM (≈ 8.91 µg/mL)
- MIC ([2]; P. aeruginosa 3399 (multidrug-resistant), triplicate): 3.13 µM (≈ 8.91 µg/mL)
- MIC ([2]; P. aeruginosa 3543 (multidrug-resistant), triplicate): 3.13 µM (≈ 8.91 µg/mL)
- MIC ([2]; P. aeruginosa 3592 (multidrug-resistant), triplicate): 3.13 µM (≈ 8.91 µg/mL)
- MIC ([2]; P. aeruginosa 3904 (multidrug-resistant), triplicate): 3.13 µM (≈ 8.91 µg/mL)
- MIC ([2]; P. aeruginosa 4007 (multidrug-resistant), triplicate): 3.13 µM (≈ 8.91 µg/mL)
- MIC ([2]; P. aeruginosa 4319 (multidrug-resistant), triplicate): 3.13 µM (≈ 8.91 µg/mL)
- MIC ([2]; P. aeruginosa 4891 (multidrug-resistant), triplicate): 1.56 µM (≈ 4.44 µg/mL)
- MIC ([2]; P. aeruginosa 5018 (multidrug-resistant), triplicate): 3.13 µM (≈ 8.91 µg/mL)
- MIC ([2]; P. aeruginosa 671973 (multidrug-resistant), triplicate): 1.56 µM (≈ 4.44 µg/mL)
- MIC ([2]; P. aeruginosa ATCC 27853, 2 × 10^5 CFU/mL, A600, triplicate): 3.13 µM (≈ 8.91 µg/mL)
- survival of HaCaT cells (HaCaT cells): no living cells were detected
- hemolysis (mouse red blood cells): complete hemolysis
